Several values for one entry are separate records, joined by “and”; a condition that tells them apart may be missing. Identical values can stand only once. Entries after “also recorded” stand apart in the source; their conditions may differ.
Experiments:
MCF-7 cells [1] = assay: mammosphere formation assay; assay type: cell-based, human; conditions: MCF-7, 5 μM; for MFE (%) ave / MFE (control = 1) ave / MFE (%): 7 days; for MFE (%) ave: mean of 3, control 0.87; for MFE (control = 1) ave: relative to control = 1; for MFE (%): single replicates
Method: We also evaluated antiproliferative activity against cancer stem cells (CSCs), which are a small sub-population in tumour bulk identified in most cancer cells and clinical samples[52]. CSCs have been a major problem in cancer therapy because they are responsible for recurrence, metastasis and drug resistance to chemotherapeutic agents that affect proliferative cells[53]–[56]. Anti-CSC activity was evaluated by the inhibition of sphere-forming ability, a well-studied method to enrich the CSC-like population, and selective cytotoxicity against one of the most reliable CSC markers, aldehyde dehydrogenase (ALDH)-positive cells. […] Low-toxicity 16 was also added as a negative control. […] We next evaluated the three DDPs that inhibited mammosphere formations against ALDH-positive cells, a functional marker for breast CSCs. MCF-7 cells were treated with 1 μM of 11, 12 or 22, and the ALDH-positive cell population was analysed by using a fluorescence activated cell sorter (Supplementary Fig. 46b). […] Thus, for the first time, we successfully found DDPs with potent antiproliferative effects on the CSC-like population in MCF-7 cells, which may lead to new anti-CSC drugs.
Fig. 5 DDPs show anti-CSC activity in breast cancer cell line MCF-7. a Effect of DDPs on mammosphere formation. After the cells were cultured in the presence of 5 μM DDPs for 7 days, the number of mammospheres was microscopically counted and the percentage of mammosphere-forming cells was determined as mammosphere-forming efficiency (MFE; %). Data represent mean ± s.d. from three independent replicate experiments. P-values were calculated by a two-sided unpaired Student’s t-test, compared with control. b Micrographs show representative images of mammosphere formation from three independent replicate experiments using compound 11, 12, 16, 22. The scale bar, […]. c Effect of DDPs (1 μM, 3 days) on ALDH-positive cells in MCF-7 cells. Data represent mean ± s.d. from three independent replicate experiments. P-values were calculated by a two-sided unpaired Student’s t-test, compared with control. d Dose-dependent effect of compound 12 on ALDH-positive cells in MCF-7 cells. Data represent mean ± s.d. from three independent replicate experiments. P-values were calculated by a two-sided unpaired Student’s t-test. Source data underlying Fig. 5a, c, d are provided in a Source Data file.

[2] = system: hepatitis B virus (HBV), measles virus (MV), Epstein-Barr virus (EBV), herpes simplex virus (HSV); assay: preliminary anti-viral screening (other viruses); assay type: cell-based
From the text: We examined the inhibitory activities of DDPs against various species of bacteria (both gram-negative and gram-positive bacteria), fungi and viruses. […] In contrast, preliminary screening of the DDPs for anti-viral agents with hepatitis B virus (HBV), measles virus (MV), Epstein-Barr virus (EBV), herpes simplex virus (HSV) and human immunodeficiency virus-1 (HIV-1) indicated their selective inhibition of HIV.

MCF-7 cells [3] = assay: cell cytotoxic effects against MCF-7 cells (72 h), A490; assay type: cell-based, human; conditions: for viability at 0.1 µM / viability at 1 µM / viability at 10 µM: Homo sapiens, MCF7, 72 h, read-out: A490 (control =1) ave; for viability at 0.1 µM / A490 ave / viability at 1 µM / viability at 10 µM: MCF-7, 72 h
MKN1 = assay: cells; parameters: species or system JFCR39 human cancer cell lines; JFCR39 panel growth inhibition, sulforhodamine B total protein after 48 h; conditions: for GI50: Homo sapiens, MKN-1, 48 h
Method: (§1) Supplementary Note 24. Antiproliferative effects across the panel of JFCR39 cancer cell lines A panel of 39 human cancer cell lines, termed JFCR39, were previously described13-16. Cells were grown in RPMI-1640 (FUJIFILM Wako Pure Chemical Corporation, Tokyo, Japan) supplemented with 1 µg mL-1 kanamycin and 5% (v/v) fetal bovine serum (Nichirei Biosciences Inc, Tokyo, Japan) and incubated at 37°C in a humidified atmosphere supplemented with 5% CO2. Drug efficacy was assessed as changes in total cellular protein after 48 hours of drug treatment using a sulforhodamine B assay. Assays were done in duplicate and the GI50 was calculated as described previously13,16. The antitumor profile across the JFCR39 panel, or fingerprints were then compared to reference database containing ~2000 compounds by COMPARE algorithm16,17. Initially, we evaluated new DDP analogues for their antiproliferative activities across the panel of 39 human cancer cell lines, JFCR39[50],[51].

NCI-H23 = assay: cells; parameters: species or system JFCR39 human cancer cell lines; JFCR39 panel growth inhibition, sulforhodamine B total protein after 48 h; conditions: for GI50: Homo sapiens, NCI-H23, 48 h
Method: as §1

LOX-IMVI = assay: cells; parameters: species or system JFCR39 human cancer cell lines; JFCR39 panel growth inhibition, sulforhodamine B total protein after 48 h; conditions: 48 h; for Log GI50: inhibitor, Log GI50, 48 h; for GI50: Homo sapiens, LOX IMVI
Method: as §1

OVCAR-4 = assay: cells; parameters: species or system JFCR39 human cancer cell lines; JFCR39 panel growth inhibition, sulforhodamine B total protein after 48 h; conditions: for GI50: Homo sapiens, OVCAR-4, 48 h
Method: as §1

PC-3 = assay: cells; parameters: species or system JFCR39 human cancer cell lines; JFCR39 panel growth inhibition, sulforhodamine B total protein after 48 h; conditions: for GI50: Homo sapiens, PC-3, 48 h
Method: as §1

HCC2998 = assay: cells; parameters: species or system JFCR39 human cancer cell lines; JFCR39 panel growth inhibition, sulforhodamine B total protein after 48 h; conditions: for GI50: Homo sapiens, HCC 2998, 48 h
Method: as §1

DMS114 = assay: cells; parameters: species or system JFCR39 human cancer cell lines; JFCR39 panel growth inhibition, sulforhodamine B total protein after 48 h; conditions: for Log GI50: 48 h, inhibitor, Log GI50, 48 h; for GI50: Homo sapiens, DMS-114, 48 h
Method: as §1

[4] = 0.1 µM (DMSO 0.002%), control 1.064
[5] = 1 µM (DMSO 0.02%), control 1.104
[6] = 10 µM (DMSO 0.2%), control 1.049
[7] = 48 h, inhibitor, Log GI50, 48 h

SMILES | effect on sphere formation (MCF-7 cells [1]) | MFE (%) ave (MCF-7 cells [1]) [%] | MFE (control = 1) ave (MCF-7 cells [1]) | MFE (%) (MCF-7 cells [1]) | effect on other viruses [2] | cytotoxicity against the bulk of MCF-7 cells (MCF-7 cells [3]) | viability at 0.1 µM (MCF-7 cells [3]; 0.1 µM (DMSO 0.002%)) [%] | A490 ave (MCF-7 cells [3]; [4]) | A490 ave (MCF-7 cells [3]; [5]) | A490 ave (MCF-7 cells [3]; [6]) | GI50 (MKN1) [µM] | GI50 (NCI-H23) [µM] | Log GI50 (LOX-IMVI) [M] | GI50 (OVCAR-4) [µM] | GI50 (PC-3) [µM] | GI50 (HCC2998) [µM] | viability at 1 µM (MCF-7 cells [3]; 1 µM (DMSO 0.02%)) [%] | viability at 10 µM (MCF-7 cells [3]; 10 µM (DMSO 0.2%)) [%] | GI50 (LOX-IMVI) [µM] | GI50 (DMS114) [µM] | other results
C=C1CCC2C(C)(CCC=C(C)C)C(O)CCC2(C)C1Cc1c(OC)oc(CO)c(C)c1=O (centres unmarked) [Compound 12] | clearly inhibited sphere formation; also recorded: strongest effect on sphere formation | 0.21 | 0.24 | 0.18% and 0.21% and 0.23% | without affecting other viruses | dose-dependent cytotoxicity | 72.1 | 0.767 | 0.265 | 0.189 | 13.7 | 1.95 | -6.218 | 9.93 | 4.92 | 15.7 |  |  |  |  | Log GI50 (DMS114): -7.363 M
C=C1CCC2C(C)(CCC=C(C)C)C(O)CCC2(C)C1Cc1c(OC)oc(C)c(C(=O)OC)c1=O (centres unmarked) [Compound 14] |  |  |  |  | without affecting other viruses |  | 74.8 | 0.796 | 0.834 | 0.207 | 16.1 | 2.61 |  | 11.9 | 10.1 | 16.7 | 75.6 | 19.7 | 10.8 | 0.0942 | 
C=C1CCC2C(C)(CCC=C(C)C)C(O)CCC2(C)C1Cc1c(OC)oc(CO)c(C)c1=O (centres unmarked) [Compound 16] | did not affect sphere formation | 0.87 | 1.00 | 0.62% and 1.01% and 0.96% |  | Low-toxicity |  | 0.808 | 1.178 | 0.730 |  |  | -5.224 |  |  |  |  |  |  |  | Log GI50 (MKN1; [7]): -4.787 M; Log GI50 (NCI-H23; [7]): -5.618 M; Log GI50 (OVCAR-4; [7]): -4.966 M; Log GI50 (PC-3; [7]): -5.211 M; Log GI50 (HCC2998; [7]): -4.871 M; Log GI50 (DMS114): -6.139 M
C=C1CC[C@H]2[C@]3(C)C[C@@H](C=C(C)C)O[C@H]3CC[C@]2(C)[C@@H]1Cc1c(OC)oc(CO)c(C)c1=O [Compound 17] |  | 0.65 | 0.75 | 0.66% and 0.68% and 0.60% | without affecting other viruses | dose-dependent cytotoxicity | 84.7 | 0.901 | 0.531 | 0.309 | 19.3 | 10.8 |  | 12.2 | 11.1 | 14 | 48.1 | 29.4 | 10.4 | 0.0701 | 
C=C1CC[C@@H]2[C@](C)(CC[C@H]3O[C@H](C=C(C)C)C[C@@]23C)[C@@H]1Cc1c(OC)oc(CO)c(C(=O)OC)c1=O [Compound 21] |  |  |  |  |  |  | 114 | 1.213 | 1.298 | 1.083 | 18.5 | 11.1 |  | 15.1 | 14.7 | 18.2 | 118 | 103 | 15.1 | 4.93 | 

Source: PMC7156458, “Synthetic biology based construction of biological activity-related library of fungal decalin-containing diterpenoid pyrones” (Nature Communications, 2020)
